Where a SMILES comes first, the peptide text is derived from it. Side-chain parts run from the residue outwards. [ ]: non-standard residue; d: D form. The star is where a group is joined. Pteroyl = Nc1nc2ncc(CNc3ccc(C(=O)*)cc3)nc2c(=O)[nH]1; Cha = N[C@@H](CC1CCCCC1)C(=O)O; dCha = N[C@H](CC1CCCCC1)C(=O)O
How the values were obtained:
Assay type in all cases: cell-based, human
KB cells = experiment: Cell viability assay (CellTiter-Blue), KB cells; conditions: 7 × 10^3 cells per well, folic acid-depleted RPMI-1640 + 10% FBS, 1% DMSO, 24 h at 37 °C, then CellTiter-Blue 4 h, three biological replicates fitted in Origin, standard error in brackets
Method: (§1) KB and MCF7 cells were kindly gifted by Prof. Arwyn T. Jones (Cardiff University), HEK293 cells were purchased from Public Health England, and SK-OV-3 cells were purchased from National Collection of Authenticated Cell Cultures (https://cell-bank.org.cn/). Cells were routinely tested for mycoplasma infection. KB and SK-OV-3 cells were maintained in T75 flasks at 37 °C in a 5% CO2 atmosphere in folic acid-depleted Roswell Park Memorial Institute (RPMI)-1640 medium supplemented with 10% (v/v) fetal bovine serum (FBS). MCF7 and HEK293 cells were maintained in T75 flasks at 37 °C in a 5% CO2 atmosphere in Dulbecco’s Modified Eagle’s medium (DMEM) supplemented with 10% (v/v) FBS. Cells were maintained at a sub-confluent monolayer and split at 80–85% confluency. For splitting, cells were washed with PBS, trypsinized in 1 mL of trypsin, and 200 µL of the 1000 µL trypsin cell suspension was re-suspended in 12 mL fresh DMEM containing 10% (v/v) FBS in a new T75 flask. KB and SK-OV-3 cells were used for biological experiments after being maintained for at least 10 days in folic acid-depleted RPMI-1640 medium.
(§2) SK-OV-3, MCF7, and HEK293 cells were seeded at a density of 2 × 10^4 cells per well in a Nunc™ MicroWell™ 96-well plate and grown at 37 °C in a 5% CO2 atmosphere in DMEM supplemented with 10% (v/v) FBS for 24 h. KB cells were seeded at a density of 7 × 10^3 cells per well in a 96-well plate and grown at 37 °C in a 5% CO2 atmosphere in folic acid-depleted RPMI-1640 medium supplemented with 10% (v/v) FBS for 24 h. Stock solutions of compounds 2–6 and 11–13 were obtained by dissolving the compounds in sterile deionized water. Compounds 1, and 7–10 were dissolved in pure DMSO. The stock solutions were diluted into the proper medium (according to the cell line tested) supplemented with 10% FBS to the appropriate concentration, and cells in each well were incubated with 100 µL of the solution. The solutions in each well were then adjusted to a concentration of 1% (v/v) DMSO. After 24 h at 37 °C, 20 µL of CellTiter-Blue™ was added to each well. The plate was incubated for another 4 h at 37 °C before analysis on a Perkin Elmer Victor X plate reader (excitation 531 nm; emission 595 nm). Each data point was calculated from a minimum of nine values resulting from three biological replicates (i.e., cells split from three different passages); each biological replicate is calculated from three technical replicates (i.e., cells split from the same passage). Value from media-only with CellTiter-Blue™ was set at 0% viability. This value was then subtracted from the values from cell-only (i.e., non-treated) wells with CellTiter-Blue™ in each biological replicate and set as 100% viability. For treatments of Cy3-containing compounds, blanks were generated with cell-free wells containing the compounds incubated for 24 h before addition of CellTiter-Blue™. The fluorescent reading for these wells was deducted from the treatment readings. Dose-response fitting curves were generated using Origin, version 2019b, OriginLab Corporation, Northampton, MA, USA (Figures S21–S24, Supplementary Materials).
(§3) Comparison of cytotoxicity fitting curves was achieved by applying the extra sum-of-squares F test, performed using GraphPad Prism version 9 for Windows, GraphPad Software, La Jolla, California, USA (https://www.graphpad.com/). […] Statistical analysis on the flow cytometry data was achieved by applying the unpaired two-tailed t-test test, performed using GraphPad Prism version 9 for Windows, GraphPad Software, La Jolla California USA, USA (https://www.graphpad.com/).
(§4) Cytotoxicity of 1–13 was evaluated using the CellTiter-Blue assay on KB, MCF7, SK-OV-3, and HEK293 cells. KB cells are derived from human cervical cancer, while SK-OV-3 cells are derived from human ovarian cancer. […] This feature is of particular relevance in anticancer applications, as it can be exploited for selective targeting and delivery. […]

SK-OV-3 cells = experiment: Cell viability assay (CellTiter-Blue), SK-OV-3 cells; conditions: 2 × 10^4 cells per well, medium + 10% FBS, 1% DMSO, 24 h at 37 °C, then CellTiter-Blue 4 h, three biological replicates fitted in Origin, standard error in brackets
Method: as §1, §2, §3, §4

MCF7 cells = experiment: Cell viability assay (CellTiter-Blue), MCF7 cells; conditions: for EC50: MCF7 cells, 2 × 10^4 cells per well, DMEM + 10% FBS, 1% DMSO, 24 h at 37 °C, then CellTiter-Blue 4 h, three biological replicates fitted in Origin, standard error in brackets
Method: as §1, §2, §3, §4

HEK293 cells = experiment: Cell viability assay (CellTiter-Blue), HEK293 cells; conditions: 2 × 10^4 cells per well, DMEM + 10% FBS, 1% DMSO, 24 h at 37 °C, then CellTiter-Blue 4 h, three biological replicates fitted in Origin, standard error in brackets
Method: as §1, §2, §3, §4

[1] = system: KB, MCF7, SK-OV-3, and HEK293 cells; experiment: Cell viability assay (CellTiter-Blue), statements over all tested cell lines; conditions: for Potency (cytotoxicity) in the tested cell lines, in words: extra sum-of-squares F test
Method: as §2, §3
Cytotoxicity of 1–13 was evaluated using the CellTiter-Blue assay on KB, MCF7, SK-OV-3, and HEK293 cells. KB cells are derived from human cervical cancer, while SK-OV-3 cells are derived from human ovarian cancer. […] This feature is of particular relevance in anticancer applications, as it can be exploited for selective targeting and delivery. MCF7 is a cell line derived from human breast cancer with low levels of folate receptor α [27]. Therefore, it can serve as the negative control for folate receptor α mediated tumor-targeted drug delivery systems. HEK293 is a non-cancer cell line and was chosen to evaluate the specificity of the tested compounds toward cancer cells.

[2] = KB, SK-OV-3, MCF7 and HEK293 cells, CellTiter-Blue

Structure (SMILES) | EC50 (KB cells) [µM] | EC50 (SK-OV-3 cells) [µM] | EC50 (MCF7 cells) [µM] | EC50 (HEK293 cells) [µM] | EC50 ([1]; KB, SK-OV-3, MCF7 and HEK293 cells, CellTiter-Blue, 24 h) [µM] | Potency (cytotoxicity) in the tested cell lines, in words [1, 2] | Selectivity of cytotoxicity between cell lines, in words ([1]; folate receptor α-high KB and SK-OV-3 versus MCF7 and HEK293) | EC50 in MCF7 cells, times higher than in the other tested cell lines (MCF7 cells; MCF7 versus KB, SK-OV-3 and HEK293)
CC(C)C[C@H](NC(=O)[C@H](CCCCN)NC(=O)[C@H](C)NC(=O)[C@H](CC(C)C)NC(=O)[C@H](CCCCN)NC(=O)[C@H](CCCCN)NC(=O)[C@H](C)NC(=O)[C@H](CC(C)C)NC(=O)[C@H](CCCCN)NC(=O)[C@H](C)NC(=O)[C@H](CC(C)C)NC(=O)[C@@H](N)CCCCN)C(=O)N[C@@H](C)C(=O)N[C@@H](CCCCN)C(N)=O [Compound 2, reference compound] | > 400 | > 400 | > 400 | > 400 | > 300 | least potent amongst the tested compounds | – | –
CC(=O)N[C@@H](CCCCNC(=O)[C@H](CCC(=O)O)NC(=O)c1ccc(NCc2cnc3nc(N)nc(O)c3n2)cc1)C(=O)N[C@H](CCCCN)C(=O)N[C@H](CC1CCCCC1)C(=O)N[C@H](C)C(=O)N[C@H](CCCCN)C(=O)N[C@@H](CC1CCCCC1)C(=O)N[C@H](C)C(=O)N[C@H](CCCCN)C(=O)N[C@H](CCCCN)C(=O)N[C@@H](CC1CCCCC1)C(=O)N[C@H](C)C(=O)N[C@H](CCCCN)C(=O)N[C@H](CC1CCCCC1)C(=O)N[C@H](C)C(=O)N[C@H](CCCCN)C(N)=O [Compound 13] (Ac-K([Glu-Pteroyl])[dK][dCha][dA][dK][Cha][dA][dK][dK][Cha][dA][dK][dCha][dA][dK]-NH2) | 9.8 | 41.5 | 26.9 | 20.4 | – | – | significantly higher | –
C[C@@H](NC(=O)[C@H](CC1CCCCC1)NC(=O)[C@@H](CCCCN)NC(=O)[C@@H](C)NC(=O)[C@@H](CC1CCCCC1)NC(=O)[C@H](N)CCCCN)C(=O)N[C@H](CCCCN)C(=O)N[C@H](CCCCN)C(=O)N[C@@H](CC1CCCCC1)C(=O)N[C@H](C)C(=O)N[C@H](CCCCN)C(=O)N[C@H](CC1CCCCC1)C(=O)N[C@H](C)C(=O)N[C@H](CCCCN)C(N)=O [Compound 4, reference compound] (HELM PEPTIDE1{[dK].[O=C([C@@H](CC1CCCCC1)N[*:1])[*:2]].[dA].[dK].[Cha].[dA].[dK].[dK].[Cha].[dA].[dK].[O=C([C@@H](CC1CCCCC1)N[*:1])[*:2]].[dA].[dK].[am]}$$$$V2.0) | 6.5 | 11.6 | 50.9 | 15.6 | – | good potency in all tested cell lines | – | 3-8 times

From PMC9138991, “Effect of Trimethine Cyanine Dye- and Folate-Conjugation on the In Vitro Biological Activity of Proapoptotic Peptides” (Biomolecules, 2022)
